For 17 molecules, IC50 results are on record in patent US20260356856A1, “KRAS G12S AND G12C INHIBITORS” (MIRATI THERAPEUTICS, INC., priority 2023, published 2026).

What all share (test): KRas binding assay, TR-FRET displacement of Cy5 labelled tracer
Holding throughout (settings): 60-minute incubation at room temperature, 1% DMSO, pH 7.5
(In general: TR-FRET usually uses a lanthanide donor and a delayed reading to cut background.)

Assay [1] addresses T1, KRas WT (Homo sapiens, UniProt P01116).
T1 construct: Biotinylated KRas (corresponding to amino acids 1-169, produced at Accelegan Inc.); biotin (biotinylated); purchased Accelegan Inc
The procedure:
(§1) This Example illustrates that exemplary compounds of the present invention bind to KRas and are capable of displacing a labeled tracer ligand occupying the KRas binding site. KRas^WT, KRas^G12A, KRas^G12C, KRas^G12D, KRas^G12R, KRas^G12S, KRas^G12V, KRas^G13D, or KRas^Q61H was used in the assay.
(§2) The ability of a compound to bind to KRas was measured using a TR-FRET displacement assay. Biotinylated KRas (corresponding to amino acids 1-169, produced at Accelegan Inc.) was incubated with custom made Cy5 labelled tracer, terbium streptavidin (Cisbio Inc.) and compound (1% DMSO final) in buffer (50 mM HEPES, pH 7.5, 5 mM MgCl2, 0.005% Tween-20 and 1 mM DTT). After a 60-minute incubation at room temperature, the reaction was measured using a BMG LABTECH CLARIO star Plus via TR-FRET. […] The POC values were fit to a 4-parameter IC50 equation and the IC50 value reported.

Assay [2] has as its target T2, KRas G12C (Homo sapiens, UniProt P01116, G12C).
T2 construct: Biotinylated KRas (corresponding to amino acids 1-169, produced at Accelegan Inc.); biotin (biotinylated); purchased Accelegan Inc
The procedure: as §1, §2

The target in assay [3] is T3, KRas G12S (Homo sapiens, UniProt P01116, G12S).
T3 construct: Biotinylated KRas (corresponding to amino acids 1-169, produced at Accelegan Inc.); biotin (biotinylated); purchased Accelegan Inc
T3 sequence (P01116 1-169 isoform P01116-2 G12S): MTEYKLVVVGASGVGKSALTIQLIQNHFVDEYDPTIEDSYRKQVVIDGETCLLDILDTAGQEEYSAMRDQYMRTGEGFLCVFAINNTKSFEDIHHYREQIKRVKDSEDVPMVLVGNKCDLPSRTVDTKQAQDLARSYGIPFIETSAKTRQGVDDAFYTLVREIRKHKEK
The procedure: as §1, §2

T2 sequence (P01116 1-169 isoform P01116-2 G12C): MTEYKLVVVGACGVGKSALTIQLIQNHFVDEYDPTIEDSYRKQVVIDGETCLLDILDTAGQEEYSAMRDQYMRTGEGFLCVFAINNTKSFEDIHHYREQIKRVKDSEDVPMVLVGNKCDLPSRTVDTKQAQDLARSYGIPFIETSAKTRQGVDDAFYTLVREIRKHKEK
T1 sequence (P01116 1-169 isoform P01116-2): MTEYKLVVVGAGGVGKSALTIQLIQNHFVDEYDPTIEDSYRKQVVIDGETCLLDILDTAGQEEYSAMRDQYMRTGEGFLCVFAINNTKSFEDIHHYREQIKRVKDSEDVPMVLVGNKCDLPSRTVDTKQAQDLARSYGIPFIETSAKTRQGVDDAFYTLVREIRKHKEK

One may read the IC50 as the point on the concentration scale where inhibition reaches its midpoint. In the case of `N#Cc1ccc(OC(=O)[C@@H]2[C@@H]3CC[C@H]2CN(c2nc(OCC45CCCN4CCC5)nc4c(F)c(-c5cccc6cccc(F)c56)ncc24)C3)cc1` [Example 20, 4-cyanophenyl (1R,5S,8r)-3-(8-fluoro-7-(8-fluoronaphthalen-1-yl)-2-((tetrahydro-1H-pyrrolizin-7a(5H)-yl)methoxy)pyrido[4,3-d]pyrimidin-4-yl)-3-azabicyclo[3.2.1]octane-8-carboxylate], the values for the IC50 in assay [1], in assay [2] and in assay [3] were 14700 nM, 27300 nM and 98800 nM, respectively.
In the case of `N#Cc1ccccc1OC(=O)[C@@H]1[C@@H]2CC[C@H]1CN(c1nc(OCC34CCCN3CCC4)nc3c(F)c(-c4cccc5cccc(F)c45)ncc13)C2` [Example 21, 2-cyanophenyl (1R,5S,8r)-3-(8-fluoro-7-(8-fluoronaphthalen-1-yl)-2-((tetrahydro-1H-pyrrolizin-7a(5H)-yl)methoxy)pyrido[4,3-d]pyrimidin-4-yl)-3-azabicyclo[3.2.1]octane-8-carboxylate], the IC50 is 52200 nM in assay [1], 15900 nM in assay [2] and more than 100000 nM in assay [3].
Take `N#Cc1cccc(OC(=O)[C@@H]2[C@@H]3CC[C@H]2CN(c2nc(OCC45CCCN4CCC5)nc4c(F)c(-c5cccc6cccc(F)c56)ncc24)C3)c1` [Example 22, 3-cyanophenyl (1R,5S,8r)-3-(8-fluoro-7-(8-fluoronaphthalen-1-yl)-2-((tetrahydro-1H-pyrrolizin-7a(5H)-yl)methoxy)pyrido[4,3-d]pyrimidin-4-yl)-3-azabicyclo[3.2.1]octane-8-carboxylate]: the IC50 is 14100 nM in assay [1], 95200 nM in assay [2] and more than 100000 nM in assay [3].
In the case of `O=C(Oc1ccc(F)c(F)c1)[C@@H]1[C@@H]2CC[C@H]1CN(c1nc(OCC34CCCN3CCC4)nc3c(F)c(-c4cccc5cccc(F)c45)ncc13)C2` [Example 23, 3,4-difluorophenyl (1R,5S,8r)-3-(8-fluoro-7-(8-fluoronaphthalen-1-yl)-2-((tetrahydro-1H-pyrrolizin-7a(5H)-yl)methoxy)pyrido[4,3-d]pyrimidin-4-yl)-3-azabicyclo[3.2.1]octane-8-carboxylate], the IC50 was 11800 nM in assay [1], 34800 nM in assay [2] and 61600 nM in assay [3].
In the case of `O=C(Oc1c(F)cccc1F)[C@@H]1[C@@H]2CC[C@H]1CN(c1nc(OCC34CCCN3CCC4)nc3c(F)c(-c4cccc5cccc(F)c45)ncc13)C2` [Example 24, 2,6-difluorophenyl (1R,5S,8r)-3-(8-fluoro-7-(8-fluoronaphthalen-1-yl)-2-((tetrahydro-1H-pyrrolizin-7a(5H)-yl)methoxy)pyrido[4,3-d]pyrimidin-4-yl)-3-azabicyclo[3.2.1]octane-8-carboxylate], the figures for the IC50 in assay [1], in assay [2] and in assay [3] were 17700 nM, 30500 nM and more than 100000 nM, respectively.
For `O=C(Oc1ccccc1F)[C@@H]1[C@@H]2CC[C@H]1CN(c1nc(OCC34CCCN3CCC4)nc3c(F)c(-c4cccc5cccc(F)c45)ncc13)C2` [Example 25, 2-fluorophenyl (1R,5S,8s)-3-(8-fluoro-7-(8-fluoronaphthalen-1-yl)-2-((tetrahydro-1H-pyrrolizin-7a(5H)-yl)methoxy)pyrido[4,3-d]pyrimidin-4-yl)-3-azabicyclo[3.2.1]octane-8-carboxylate], in that order: 10900 nM, 66900 nM and more than 100000 nM.
For `O=C(Oc1ccccc1)[C@@H]1[C@@H]2CC[C@H]1CN(c1nc(OCC34CCCN3CCC4)nc3c(F)c(-c4cccc5cccc(F)c45)ncc13)C2` [Example 26, phenyl (1R,5S,8r)-3-(8-fluoro-7-(8-fluoronaphthalen-1-yl)-2-((tetrahydro-1H-pyrrolizin-7a(5H)-yl)methoxy)pyrido[4,3-d]pyrimidin-4-yl)-3-azabicyclo[3.2.1]octane-8-carboxylate], the IC50 was determined as 10600 nM in assay [1], 92800 nM in assay [2] and 75600 nM in assay [3].
Take `N#Cc1ccccc1OC(=O)C1CCN(c2nc(OCC34CCCN3CCC4)nc3c(F)c(-c4cccc5cccc(F)c45)ncc23)CC1` [Example 27, 2-cyanophenyl 1-(8-fluoro-7-(8-fluoronaphthalen-1-yl)-2-((tetrahydro-1H-pyrrolizin-7a(5H)-yl)methoxy)pyrido[4,3-d]pyrimidin-4-yl)piperidine-4-carboxylate]: the values for the concentration for half-maximal inhibition (IC50) in assay [1], in assay [2] and in assay [3] were 89200 nM, 452 nM and more than 100000 nM, respectively.
In the case of `N#Cc1cccc(OC(=O)C2CCN(c3nc(OCC45CCCN4CCC5)nc4c(F)c(-c5cccc6cccc(F)c56)ncc34)CC2)c1` [Example 28, 3-cyanophenyl 1-(8-fluoro-7-(8-fluoronaphthalen-1-yl)-2-((tetrahydro-1H-pyrrolizin-7a(5H)-yl)methoxy)pyrido[4,3-d]pyrimidin-4-yl)piperidine-4-carboxylate], the concentration for half-maximal inhibition (IC50) in assay [1] was more than 100000 nM; in assay [2], 724 nM; in assay [3], 74700 nM.
As for `N#Cc1ccc(OC(=O)C2CCN(c3nc(OCC45CCCN4CCC5)nc4c(F)c(-c5cccc6cccc(F)c56)ncc34)CC2)cc1` [Example 29, 4-cyanophenyl 1-(8-fluoro-7-(8-fluoronaphthalen-1-yl)-2-((tetrahydro-1H-pyrrolizin-7a(5H)-yl)methoxy)pyrido[4,3-d]pyrimidin-4-yl)piperidine-4-carboxylate], the IC50 was 90500 nM in assay [1], 201 nM in assay [2] and more than 100000 nM in assay [3].
On to `O=C(Oc1c(F)cccc1F)C1CCN(c2nc(OCC34CCCN3CCC4)nc3c(F)c(-c4cccc5cccc(F)c45)ncc23)CC1` [Example 30, 2,6-difluorophenyl 1-(8-fluoro-7-(8-fluoronaphthalen-1-yl)-2-((tetrahydro-1H-pyrrolizin-7a(5H)-yl)methoxy)pyrido[4,3-d]pyrimidin-4-yl)piperidine-4-carboxylate], for which the IC50 in assay [1] was more than 100000 nM; in assay [2], 194 nM; in assay [3], 32800 nM.
As to `O=C(OCC(F)(F)F)C1CCN(c2nc(OCC34CCCN3CCC4)nc3c(F)c(-c4cccc5cccc(F)c45)ncc23)CC1` [Example 31, 2,2,2-trifluoroethyl 1-(8-fluoro-7-(8-fluoronaphthalen-1-yl)-2-((tetrahydro-1H-pyrrolizin-7a(5H)-yl)methoxy)pyrido[4,3-d]pyrimidin-4-yl)piperidine-4-carboxylate], the half-maximal inhibitory concentration (IC50) was 39400 nM in assay [1], more than 100000 nM in assay [2] and more than 100000 nM in assay [3].
On to `O=C(Oc1cccnc1)C1CCN(c2nc(OCC34CCCN3CCC4)nc3c(F)c(-c4cccc5cccc(F)c45)ncc23)CC1` [Example 32, pyridin-3-yl 1-(8-fluoro-7-(8-fluoronaphthalen-1-yl)-2-((tetrahydro-1H-pyrrolizin-7a(5H)-yl)methoxy)pyrido[4,3-d]pyrimidin-4-yl)piperidine-4-carboxylate], for which the IC50 in assay [1] is more than 100000 nM; in assay [2], 128 nM; in assay [3], 43300 nM.
As for `O=C(Oc1cc(F)cc(F)c1)C1CCN(c2nc(OCC34CCCN3CCC4)nc3c(F)c(-c4cccc5cccc(F)c45)ncc23)CC1` [Example 33, 3,5-difluorophenyl 1-(8-fluoro-7-(8-fluoronaphthalen-1-yl)-2-((tetrahydro-1H-pyrrolizin-7a(5H)-yl)methoxy)pyrido[4,3-d]pyrimidin-4-yl)piperidine-4-carboxylate], the values for the IC50 in assay [1], in assay [2] and in assay [3] were more than 100000 nM, 10700 nM and more than 100000 nM, respectively.
Turning to `O=C(Oc1cccc(F)c1F)C1CCN(c2nc(OCC34CCCN3CCC4)nc3c(F)c(-c4cccc5cccc(F)c45)ncc23)CC1` [Example 34, 2,3-difluorophenyl 1-(8-fluoro-7-(8-fluoronaphthalen-1-yl)-2-((tetrahydro-1H-pyrrolizin-7a(5H)-yl)methoxy)pyrido[4,3-d]pyrimidin-4-yl)piperidine-4-carboxylate], the IC50 in assay [1] was more than 100000 nM; in assay [2], 7890 nM; in assay [3] it was more than 100000 nM.
In the case of `O=C(Oc1ccccc1F)C1CCN(c2nc(OCC34CCCN3CCC4)nc3c(F)c(-c4cccc5cccc(F)c45)ncc23)CC1` [Example 35, 2-fluorophenyl 1-(8-fluoro-7-(8-fluoronaphthalen-1-yl)-2-((tetrahydro-1H-pyrrolizin-7a(5H)-yl)methoxy)pyrido[4,3-d]pyrimidin-4-yl)piperidine-4-carboxylate], the IC50 in assay [1] amounted to 92600 nM; in assay [2], 321 nM; in assay [3], 47500 nM.
As to `O=C(Oc1ccc(F)c(F)c1)[C@H]1CCN(c2nc(OCC34CCCN3CCC4)nc3c(F)c(-c4cccc5cccc(F)c45)ncc23)C[C@H]1O` [Example 36, 3,4-difluorophenyl (3S,4S)-1-(8-fluoro-7-(8-fluoronaphthalen-1-yl)-2-((tetrahydro-1H-pyrrolizin-7a(5H)-yl)methoxy)pyrido[4,3-d]pyrimidin-4-yl)-3-hydroxypiperidine-4-carboxylate], the IC50 is more than 100000 nM in assay [1], 18900 nM in assay [2] and more than 100000 nM in assay [3].
